For 11 compounds, IC50 results are on record in patent publication US11690850B2, “Inhibitors of receptor interacting protein kinase I for the treatment of disease” (Board of Regents, The University of Texas System, priority 2019, dated 2023).

The IC50 is the point on the concentration scale where inhibition reaches its midpoint.

For experiment [1], the target named is RIPK1 (Homo sapiens (Human), UniProt Q13546). The experiment in a line: ADP-Glo Kinase Assay. The class given is biochemical. As to conditions: 5 nM RIPK1 protein, 50 μM ATP, 6 hr reaction, average value across multiple runs. A digest of the protocol: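 ADP formed from ATP is measured by ADP-Glo luminescence with 5 nM RIPK1, preincubated 10 min with compound, then 50 μM ATP for 6 h. Buffer is 50 mM HEPES pH 7.5, 50 mM NaCl, 30 mM MgCl2, 1 mM DTT, 0.05% BSA, 0.02% CHAPS. IC50 comes from a four-parameter fit, averaged over runs.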
RIPK1, sequence (Q13546 1-327): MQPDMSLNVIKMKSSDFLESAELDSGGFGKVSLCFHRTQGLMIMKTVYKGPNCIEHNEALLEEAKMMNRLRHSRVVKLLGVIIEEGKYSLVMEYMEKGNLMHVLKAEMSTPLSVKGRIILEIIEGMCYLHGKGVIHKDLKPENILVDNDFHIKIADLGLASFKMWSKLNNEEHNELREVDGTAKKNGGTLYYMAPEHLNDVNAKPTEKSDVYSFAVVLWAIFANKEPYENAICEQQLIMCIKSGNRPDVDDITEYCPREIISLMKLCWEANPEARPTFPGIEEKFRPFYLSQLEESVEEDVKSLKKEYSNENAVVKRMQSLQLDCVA
Background: In ADP-Glo the light output rises with the ADP produced.

Experiment [2] has as its system human monocytic cell line U937. The experiment in a line: Human U937 Cellular Necroptosis Assay. Type of experiment: cell-based. As to conditions: U-937; U937 cells stimulated with 25 ng/mL human TNFalpha and 25 μM z-VAD-FMK, 22 hr, viability by Cell Titer-Glo 2.0; average value across multiple runs; read-out: hU937 IC50. As to the method:
Human U937 Cellular Necroptosis Assay
The human monocytic cell line U937 (CRL-1593.2) was purchased from ATCC. The cells were routinely maintained in RPMI-1640 Medium (Gibco, Catalog #11875-093) supplemented with 10% heat inactivated fetal bovine serum (Gibco, Catalog #16140-071), 100 units/mL penicillin and 100 μg/mL streptomycin (Gibco, Catalog #15140-122), in a humidified incubator (37° C., 5% CO2). For the assay, cells were resuspended in RPMI-1640 phenol red free Media (Gibco, Catalog #11835-030) supplemented with 10% fetal bovine serum (Sigma, Catalog #F2442), 100 units/mL penicillin and 100 ug/mL streptomycin. Cells were stimulated with 25 ng/mL human TNFalpha (Cell Sciences, Catalog #CSI15659B) and 25 μM z-VAD-FMK (R&D Systems, Catalog #FMK001) followed by seeding 5000 cells per well in a volume of 40 μL to a white, CulturPlate-384 (Perkin Elmer, Catalog #6007680). Stock solutions of the test compounds were prepared in 100% DMSO (Sigma, Catalog #D2650) and serially diluted 1:3 using 100% DMSO. Compounds were additionally diluted 1:40 in assay medium, and 10 μL/well was transferred to the plate. Following the compound addition the plate was incubated at 37° C. and 5% CO2 for 22 hr. After 22 hr, viability was assessed with the addition of 20 μL of Cell Titer-Glo 2.0 (Promega, Catalog #G9243). The tissue culture plate was shaken on an orbital shaker at 300 RPM for 15 minutes at room temperature in the dark. Luminescence was measured using a PerkinElmer Envision™ plate reader. IC50 values were calculated using a four-parameter logistic curve fit using Genedata Screener software. Results are shown below in Table 5, where the average value across multiple runs is given.

Regarding `Cc1cc(=O)c(C(=O)Nc2cccc(Cl)c2F)nn1-c1cccc(Cl)c1` [Example 17, N-(3-chloro-2-fluorophenyl)-1-(3-chlorophenyl)-6-methyl-4-oxo-1,4-dihydropyridazine-3-carboxamide], the IC50 was found to be 52 nM in experiment [1] and 631 nM in experiment [2].

Take `Cc1cc(=O)c(C(=O)Nc2cccc(Cl)c2F)nn1-c1cc(F)ccc1F` [Example 9, N-(3-chloro-2-fluorophenyl)-1-(2,5-difluorophenyl)-6-methyl-4-oxo-1,4-dihydropyridazine-3-carboxamide]: the IC50 in experiment [1] is 78 nM; in experiment [2] it was 170 nM.

Take `Cc1cc(=O)c(C(=O)NC2CCc3ccccc3NC2=O)nn1-c1cccc(C#N)c1` (stereo not shown) [Example 53, 1-(3-cyanophenyl)-6-methyl-4-oxo-N-(2-oxo-2,3,4,5-tetrahydro-1H-benzo[b]azepin-3-yl)-1,4-dihydropyridazine-3-carboxamide]: the IC50 was 652 nM in experiment [1] and 591 nM in experiment [2].

For `Cc1cc(=O)c(C(=O)NC2CCc3ccccc3NC2=O)nn1-c1ccc(C#N)cc1` (stereo not shown) [Example 56, 1-(4-cyanophenyl)-6-methyl-4-oxo-N-(2-oxo-2,3,4,5-tetrahydro-1H-benzo[b]-azepin-3-yl)-1,4-dihydropyridazine-3-carboxamide], the results for the IC50 in experiment [1] and in experiment [2] were 85 nM and 292 nM, respectively.

Consider `Cc1cc(=O)c(C(=O)N[C@H]2COc3cccnc3N(C)C2=O)nn1-c1ccccc1` [Example 50, (S)-6-methyl-N-(5-methyl-4-oxo-2,3,4,5-tetrahydropyrido[3,2-b][1,4]oxazepin-3-yl)-4-oxo-1-phenyl-1,4-dihydropyridazine-3-carboxamide], for which the IC50 in experiment [1] is 28 nM; in experiment [2] it was 33 nM.

`Cc1ccc(-n2nc(C(=O)N[C@H]3COc4cc(C#N)ccc4N(C)C3=O)c(=O)cc2C)cc1F` [Example 62, (S)-N-(8-cyano-5-methyl-4-oxo-2,3,4,5-tetrahydrobenzo[b][1,4]oxazepin-3-yl)-1-(3-fluoro-4-methylphenyl)-6-methyl-4-oxo-1,4-dihydropyridazine-3-carboxamide]: the half-inhibitory concentration (IC50) worked out at 48 nM in experiment [1] and 67 nM in experiment [2].

Turning to `Cc1cc(=O)c(C(=O)NC2CCc3ccccc3NC2=O)nn1-c1ccc(Cl)cc1` (stereo not shown) [Example 66, 1-(4-chlorophenyl)-6-methyl-4-oxo-N-(2-oxo-2,3,4,5-tetrahydro-1H-benzo[b]azepin-3-yl)-1,4-dihydro-pyridazine-3-carboxamide], the values for the IC50 in experiment [1] and in experiment [2] were 30.2 nM and 80.4 nM, respectively.

`Cc1c(Br)c(=O)c(C(=O)NC2CCc3cc(C#N)ccc3NC2=O)nn1-c1ccccc1` (stereo not shown) [Example 44, 5-Bromo-N-(7-cyano-2-oxo-2,3,4,5-tetrahydro-1H-benzo[b]azepin-3-yl)-6-methyl-4-oxo-1-phenyl-1,4-dihydropyridazine-3-carboxamide]: the IC50 in experiment [1] came to 62 nM; in experiment [2], 160 nM.

For `Cc1c(Br)c(=O)c(C(=O)NC2CCc3ccccc3NC2=O)nn1-c1ccccc1` (stereo not shown) [Example 42, 5-Bromo-6-methyl-4-oxo-N-(2-oxo-2,3,4,5-tetrahydro-1H-benzo[b]azepin-3-yl)-1-phenyl-1,4-dihydropyridazine-3-carboxamide], the values for the IC50 in experiment [1] and in experiment [2] were 36 nM and 141 nM, respectively.

`Cc1cc(=O)c(C(=O)Nc2c3ccccc3nc3ccccc23)nn1-c1ccccc1` [Example 33, N-(acridin-9-yl)-6-methyl-4-oxo-1-phenyl-1,4-dihydropyridazine-3-carboxamide]: the IC50 in experiment [1] turned out to be 2190 nM; in experiment [2] it was 8490 nM.

With `Cc1cc(=O)c(C(=O)NC2CCc3ccccc3NC2=O)nn1-c1cccc(F)c1` (stereo not shown) [Example 54, 1-(3-fluorophenyl)-6-methyl-4-oxo-N-(2-oxo-2,3,4,5-tetrahydro-1H-benzo[b]-azepin-3-yl)-1,4-dihydropyridazine-3-carboxamide], the results for the IC50 in experiment [1] and in experiment [2] were 27 nM and 53 nM, respectively.
